The target of one experiment is BACE1 (Homo sapiens, UniProt P56817). The experiment in a line: In vitro enzymatic BACE FRET assay. It counts as biochemical. Particulars: read-out: BACE1 FRET assay IC50. The protocol: In Vitro Enzymatic BACE FRET (Fluorescence Resonance Energy Transfer) Assay
Enzyme Assay Data in the Example Table I
The assay buffer used in this screen is 0.05 M acetate, pH 4.2, 10% DMSO final, 100 uM genapol (which is a nonionic detergent, below its Critical Micelle Concentration). The Beta Secretase enzyme (0.2 nM) is pre-incubated for one hour with inhibitors, typically in about 1 uL of DMSO according to a serial dilution, are added thereto. This assay is effectively started by the addition of FRET substrate (50 nM) and the combination is incubated for one hour. The FRET assay is terminated with by addition of Tris buffer, which raises the pH to neutrality, and the fluorescence is determined. The FRET substrate is a peptide with commercially available fluorophore and quencher, on opposite sides of the BACE cleavage site. Proteolytic cleavage of the FRET substrate releases quenching of fluorescence (excitation 488 nm and […]).

The subject of experiment [1] is Aβ40 in conditioned medium of cells stably expressing Amyloid Precursor Protein (APP). The experiment can be described thus: In vitro BACE cell-based assay (HEK cell assay, Aβ40 sandwich ELISA). To be noted: Homo sapiens, HEK293; Aβ40, 24 h incubation; read-out: HEK cell assay IC50. On the procedure: In Vitro BACE Cell-Based Assay
The cell-based assay measures inhibition or reduction of Aβ40 in conditioned medium of test compound treated cells expressing amyloid precursor protein.
Cells stably expressing Amyloid Precursor Protein (APP) were plated at a density of 40K cells/well in 96 well plates (Costar). The cells were cultivated for 24 hours at 37° C. and 5% CO2 in DMEM supplemented with 10% FBS. The test compounds were then added to cells in 10-point dose response concentrations with the starting concentration being either 100 μM or 10 μM. The compounds were diluted from stock solutions in DMSO and the final DMSO concentration of the test compounds on cells was 0.1%. After 24 h of incubation with the test compounds the supernatant conditioned media was collected and the Aβ 40 levels were determined using a sandwich ELISA. The IC50 of the compound was calculated from the percent of control or percent inhibition of Aβ 40 as a function of the concentration of the test compound.
The sandwich ELISA to detect Aβ 40 was performed in 96 well microtiter plates, which were pre-treated with goat anti-rabbit IgG (Pierce). The capture and detecting antibody pair that were used to detect Aβ 40 from cell supernatants were affinity purified pAb40 (Biosource) and biotinylated 6E10 (Signet Labs Inc.), respectively. The optimal concentration for the pAb40 antibody was 3 μg/ml in Superblock/TBS (Pierce) that was supplemented with 0.05% Tween 20 (Sigma). Optimal concentration for the detection antibody 6E10-biotinylated was 0.5 μg/ml in Superblock/TBS (Pierce) that had been supplemented with 2% normal goat serum and 2% normal mouse serum.
Cellular supernatants were incubated with the capture antibody for 3 h at 4° C., followed by 3 wash steps in TBS-tween (0.05%). The detecting antibody incubation was for 2 h at 4° C., again followed by the wash steps as described previously. The final readout of the ELISA is Time-Resolved Fluorescence (counts per minute) using Delfia reagents Streptavidin-Europium and Enhancement solutions (Perkin Elmer) and the Victor 2 multilabel counter (Perkin Elmer).

Another experiment concerns the target T1, Cathepsin D (Cat D) (Homo sapiens, UniProt P07339).
T1 construct: made in house; host or cells: CHO cells
The experiment can be described thus: In vitro enzymatic Cathepsin D (Cat D) FRET assay. It counts as biochemical. On the procedure:
In Vitro Enzymatic Cathepsin D (Cat D) FRET (Fluorescence Resonance Energy Transfer) Assay
Recombinant Cat D was expressed in CHO cells. The assay buffer for CathepsinD is 0.05 M citrate pH 3.5, 10% DMSO final, 5 mM CHAPS. The Cat D enzyme (9 nM) is pre-incubated for one hour with inhibitors, typically in about 1 uL of DMSO according to a serial dilution, is added thereto. The assays are effectively started by the addition of different FRET substrates (20 nM for Cat D) and the combination is incubated for one hour. The FRET assay is terminated with by addition of Tris buffer, which raises the pH to neutrality, and the fluorescence is determined. The FRET substrate is a peptide with commercially available fluorophore and quencher, on opposite sides of the BACE cleavage site. The Cat D substrate peptide sequence is based on sequence #1 of Table 1 from Gulnik et al. FEBS Letters v413 p 379-384 1997. Proteolytic cleavage of the FRET substrate releases quenching of fluorescence (Cat D excitation 500 nm and emission 580 nm). […]
Where available, the in-vitro Cat D FRET assay data for each of the Examples, conducted by the first procedure, is provided in Tables 1 and 3. For example, the compound of example 28 has a Cat D IC50 value of >400 uM.

Like-named read-outs stand apart in the source and are kept apart here.

Chain of BACE1 (P56817 46-501, species assumed): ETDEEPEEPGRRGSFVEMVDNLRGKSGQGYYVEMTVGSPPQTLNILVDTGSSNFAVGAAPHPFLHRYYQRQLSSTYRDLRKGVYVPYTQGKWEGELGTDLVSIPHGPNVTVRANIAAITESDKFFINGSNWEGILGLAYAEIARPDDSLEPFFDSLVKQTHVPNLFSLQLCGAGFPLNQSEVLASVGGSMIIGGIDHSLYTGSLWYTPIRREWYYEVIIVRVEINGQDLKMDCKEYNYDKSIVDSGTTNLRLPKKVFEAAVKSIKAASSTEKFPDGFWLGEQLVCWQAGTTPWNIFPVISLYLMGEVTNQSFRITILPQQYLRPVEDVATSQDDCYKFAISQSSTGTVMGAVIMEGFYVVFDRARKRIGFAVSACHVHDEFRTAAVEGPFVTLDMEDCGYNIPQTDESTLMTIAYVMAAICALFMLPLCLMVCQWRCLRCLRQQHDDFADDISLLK
T1 sequence (P07339 65-412, species assumed): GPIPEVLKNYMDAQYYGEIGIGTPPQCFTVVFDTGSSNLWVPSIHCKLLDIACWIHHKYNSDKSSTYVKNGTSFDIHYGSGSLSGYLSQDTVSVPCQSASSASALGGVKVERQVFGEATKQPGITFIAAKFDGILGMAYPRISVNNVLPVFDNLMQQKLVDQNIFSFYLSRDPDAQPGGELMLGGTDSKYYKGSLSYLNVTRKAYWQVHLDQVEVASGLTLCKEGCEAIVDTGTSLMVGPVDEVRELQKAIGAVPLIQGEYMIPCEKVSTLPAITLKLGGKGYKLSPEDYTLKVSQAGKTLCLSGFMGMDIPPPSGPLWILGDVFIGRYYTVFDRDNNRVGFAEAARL

Turning to `Cc1cc(OC(F)F)cnc1C(=O)Nc1ccc(F)c([C@@]2(C)N=C(N)[C@@]3(C)CCC[C@]2(C)S3(=O)=O)c1` [Example 13, N-(3-((1S,2R,5R)-4-Amino-1,2,5-trimethyl-9,9-dioxido-9-thia-3-azabicyclo[3.3.1]non-3-en-2-yl)-4-fluorophenyl)-5-(difluoromethoxy)-3-methylpicolinamide], the results for the IC50 (on BACE1; in experiment [1]; on Cathepsin D (Cat D) (read-out: CatD IC50)) were 0.013 µM, 0.006 µM and 8.64 µM, respectively.

Regarding `Cc1cc(OC(F)F)cnc1C(=O)Nc1ccc(F)c([C@@]2(C)N=C(N)[C@]3(C)CCC[C@@]2(C)S3(=O)=O)c1` [Example 14, N-(3-((1R,2R,5S)-4-Amino-1,2,5-trimethyl-9,9-dioxido-9-thia-3-azabicyclo[3.3.1]non-3-en-2-yl)-4-fluorophenyl)-5-(difluoromethoxy)-3-methylpicolinamide], the IC50 at BACE1 was 0.009 µM; in experiment [1], 0.002 µM; at Cathepsin D (Cat D) (read-out: CatD IC50), 17.7 µM.

As for `COc1cnc(C(=O)Nc2ccc(F)c([C@@]3(C)N=C(N)[C@@]4(C)CCC[C@]3(C)S4(=O)=O)c2)cn1` [Example 15, N-(3-((1S,2R,5R)-4-Amino-1,2,5-trimethyl-9,9-dioxido-9-thia-3-azabicyclo[3.3.1]non-3-en-2-yl)-4-fluorophenyl)-5-methoxypyrazine-2-carboxamide], the results for the IC50 (at BACE1; in experiment [1]; on Cathepsin D (Cat D) (read-out: CatD IC50)) were 0.049 µM, 0.027 µM and 138 µM, respectively.

Take `COc1cnc(C(=O)Nc2ccc(F)c([C@@]3(C)N=C(N)[C@]4(C)CCC[C@@]3(C)S4(=O)=O)c2)cn1` [Example 16, N-(3-((1R,2R,5S)-4-Amino-1,2,5-trimethyl-9,9-dioxido-9-thia-3-azabicyclo[3.3.1]non-3-en-2-yl)-4-fluorophenyl)-5-methoxypyrazine-2-carboxamide]: the IC50 on BACE1 came to 0.02 µM; in experiment [1], 0.016 µM; on Cathepsin D (Cat D) (read-out: CatD IC50), 85.2 µM.

Take `Cc1cc(Cl)cnc1C(=O)Nc1ccc(F)c([C@@]2(C)N=C(N)[C@@H]3CCC[C@H]2S3(=O)=O)c1` [Example 17, N-(3-((1R,2R,5S)-4-Amino-2-methyl-9,9-dioxido-9-thia-3-azabicyclo[3.3.1]non-3-en-2-yl)-4-fluorophenyl)-5-chloro-3-methylpicolinamide]: the IC50 on BACE1 was 0.015 µM; in experiment [1] it was 0.064 µM; on Cathepsin D (Cat D) (read-out: CatD IC50), 2780 µM.

Turning to `Cc1cc(OC(F)F)cnc1C(=O)Nc1ccc(F)c([C@@]2(C)N=C(N)[C@@H]3CCC[C@H]2S3(=O)=O)c1` [Example 18, N-(3-((1R,2R,5S)-4-Amino-2-methyl-9,9-dioxido-9-thia-3-azabicyclo[3.3.1]non-3-en-2-yl)-4-fluorophenyl)-5-(difluoromethoxy)-3-methylpicolinamide], the values for the IC50 (on BACE1; in experiment [1]; on Cathepsin D (Cat D) (read-out: CatD IC50)) were 0.043 µM, 0.018 µM and 690 µM, respectively.

On to `Cc1cc(Cl)cnc1C(=O)Nc1ccc(F)c([C@@]2(C)N=C(N)[C@H]3CCC[C@@H]2S3(=O)=O)c1` [Example 20, N-(3-((1S,2R,5R)-4-Amino-2-methyl-9,9-dioxido-9-thia-3-azabicyclo[3.3.1]non-3-en-2-yl)-4-fluorophenyl)-5-chloro-3-methylpicolinamide], for which the half-maximal inhibitory concentration (IC50) on BACE1 came to 0.003 µM; in experiment [1], 0.006 µM; at Cathepsin D (Cat D) (read-out: CatD IC50), 717 µM.

With `Cc1cc(Cl)cnc1C(=O)Nc1ccc(F)c([C@@]2(C)N=C(N)[C@@H]3CC[C@H]2S3(=O)=O)c1` [Example 21, N-(3-((1R,2R,5S)-4-Amino-2-methyl-8,8-dioxido-8-thia-3-azabicyclo[3.2.1]oct-3-en-2-yl)-4-fluorophenyl)-5-chloro-3-methylpicolinamide], the results for the IC50 (on BACE1; in experiment [1]; on Cathepsin D (Cat D) (read-out: CatD IC50)) were 0.016 µM, 0.081 µM and 1640 µM, respectively.

Regarding `Cc1cc(OC(F)F)cnc1C(=O)Nc1ccc(F)c([C@@]2(C)N=C(N)[C@@]3(C)CC[C@@H]2S3(=O)=O)c1` [Example 23, N-(3-((1S,2R,5R)-4-Amino-2,5-dimethyl-8,8-dioxido-8-thia-3-azabicyclo[3.2.1]oct-3-en-2-yl)-4-fluorophenyl)-5-(difluoromethoxy)-3-methylpicolinamide], the results for the IC50 (on BACE1; in experiment [1]; at Cathepsin D (Cat D) (read-out: CatD IC50)) were 0.002 µM, 0.001 µM and 117 µM, respectively.

For the molecule `Cc1c(C(=O)Nc2ccc(F)c([C@@]3(C)N=C(N)[C@@]4(C)CC[C@@H]3S4(=O)=O)c2)nc2ccc(Cl)cn12` [Example 25, N-(3-((1S,2R,5R)-4-Amino-2,5-dimethyl-8,8-dioxido-8-thia-3-azabicyclo[3.2.1]oct-3-en-2-yl)-4-fluorophenyl)-6-chloro-3-methylimidazo[1,2-a]pyridine-2-carboxamide], the IC50 was 0.021 µM on BACE1, 0.004 µM in experiment [1] and 318 µM on Cathepsin D (Cat D) (read-out: CatD IC50).

With `Cc1cc(Cl)cnc1C(=O)Nc1ccc(F)c([C@@]2(C)N=C(N)[C@]3(C)CC[C@H]2S3(=O)=O)c1` [Example 26, N-(3-((1R,2R,5S)-4-Amino-2,5-dimethyl-8,8-dioxido-8-thia-3-azabicyclo[3.2.1]oct-3-en-2-yl)-4-fluorophenyl)-5-chloro-3-methylpicolinamide], the IC50 stood at 0.008 µM at BACE1, 0.017 µM in experiment [1] and 577 µM on Cathepsin D (Cat D) (read-out: CatD IC50).

Turning to `Cc1cc(C(F)(F)F)cnc1C(=O)Nc1ccc(F)c([C@@]2(C)N=C(N)[C@]3(C)CC[C@H]2S3(=O)=O)c1` [Example 27, N-(3-((1R,2R,5S)-4-Amino-2,5-dimethyl-8,8-dioxido-8-thia-3-azabicyclo[3.2.1]oct-3-en-2-yl)-4-fluorophenyl)-3-methyl-5-(trifluoromethyl)picolinamide], the IC50 on BACE1 amounted to 0.014 µM; in experiment [1], 0.002 µM; on Cathepsin D (Cat D) (read-out: CatD IC50), 2040 µM.

`Cc1c(C(=O)Nc2ccc(F)c([C@@]3(C)N=C(N)[C@]4(C)CC[C@H]3S4(=O)=O)c2)nc2ccc(Cl)cn12` [Example 28, N-(3-((1R,2R,5S)-4-Amino-2,5-dimethyl-8,8-dioxido-8-thia-3-azabicyclo[3.2.1]oct-3-en-2-yl)-4-fluorophenyl)-6-chloro-3-methylimidazo[1,2-a]pyridine-2-carboxamide]: the IC50 at BACE1 was 0.07 µM; in experiment [1], 0.01 µM; on Cathepsin D (Cat D) (read-out: Cat D IC50 value), > 400 µM; at Cathepsin D (Cat D) (read-out: CatD IC50), > 400 µM.

For `C[C@]1(c2cc(Nc3ncc(F)c4cc(Cl)cnc34)ccc2F)N=C(N)[C@@]2(C)CC[C@@H]1S2(=O)=O` [Example 29, (1R,4R,5S)-2-Amino-4-(5-((3-chloro-5-fluoro-1,7-naphthyridin-8-yl)amino)-2-fluorophenyl)-1,4-dimethyl-8-thia-3-azabicyclo[3.2.1]oct-2-ene 8,8-dioxide], the IC50 at BACE1 was 0.001 µM; in experiment [1] it was 0.052 µM; on Cathepsin D (Cat D) (read-out: CatD IC50), 733 µM.

For `C[C@]12CC[C@H]([C@@](C)(c3cc(Nc4ncc(F)c5cc(Cl)cnc45)ccc3F)N=C1N)S2(=O)=O` [Example 30, N-(3-((1R,2R,5S)-4-amino-2,5-dimethyl-8,8-dioxido-8-thia-3-azabicyclo[3.2.1]oct-3-en-2-yl)-4-fluorophenyl)-3-chloro-5-fluoro-1,7-naphthyridin-8-amine], the IC50 on BACE1 amounted to 0.033 µM; in experiment [1], 0.163 µM; at Cathepsin D (Cat D) (read-out: CatD IC50) it was 4500 µM.

These data come from patent US9096615B2, “Bridged bicyclic amino thiazine dioxide compounds as inhibitors of beta-secretase and methods of use thereof” (AMGEN INC., priority 2013, dated 2015).
